{"source": "patent US8859574B2", "about": "(IRM LLC, priority 2008, dated 2014)"}
{"target": "T1, IGF-1R Ba/F3 (Homo sapiens, UniProt P08069)", "T1 construct": "fused on or other part: TEL- (or BCR-) IGF-1R in Ba/F3: the kinase part holds the site", "T1 sequence (P08069 999-1274 limits assumed)": "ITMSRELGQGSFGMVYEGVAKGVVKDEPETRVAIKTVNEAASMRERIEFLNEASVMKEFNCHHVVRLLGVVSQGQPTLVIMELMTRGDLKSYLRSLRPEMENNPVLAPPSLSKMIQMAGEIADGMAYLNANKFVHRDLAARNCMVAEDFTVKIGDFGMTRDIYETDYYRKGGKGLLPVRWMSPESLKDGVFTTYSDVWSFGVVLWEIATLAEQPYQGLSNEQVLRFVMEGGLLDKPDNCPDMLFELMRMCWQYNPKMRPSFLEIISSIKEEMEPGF", "experiment": "Ba/F3 Cell Viability Inhibition Assay (IGF-1R Ba/F3)", "assay_type": "cell-based, murine", "details": "Tel-TK transformed Ba/F3 cells, 48 hours, Britelite luminescence", "summary_of_the_method": "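A 48 h compound treatment at 37 °C (3750 cells/well) was followed by Britelite luminescence to measure viability. Cells were Ba/F3 pro-B cells, IL-3-independent via TEL-fused IGF-1R kinase transduction. A logistic fit gave IC50 as 50% viability relative to DMSO control.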", "units": {"IC50": "µM"}}
{"smiles": "Cc1cc(Nc2nc(Nc3cc(Cl)c(C4CCN(C(=O)CN(C)C)CC4)cc3C)ncc2Cl)n[nH]1", "note": "[Compound 74, 1-(4-(2-chloro-4-(5-chloro-4-(5-methyl-1H-pyrazol-3-ylamino)pyrimidin-2-ylamino)-5-methylphenyl)piperidin-1-yl)-2-(dimethylamino)ethanone]", "IC50": 0.007}
{"smiles": "Cc1cc(Nc2nc(Nc3cc(C)c(C4CCN(C(=O)CN(C)C)CC4)cc3C)ncc2Cl)n[nH]1", "note": "[Compound 75, 1-(4-(4-(5-chloro-4-(5-methyl-1H-pyrazol-3-ylamino)pyrimidin-2-ylamino)-2,5-dimethylphenyl)piperidin-1-yl)-2-(dimethylamino)ethanone]", "IC50": 0.011}
{"smiles": "COc1cc(Nc2ncc(Cl)c(Nc3cc(C)[nH]n3)n2)c(C)cc1C1CCN(C(=O)CN(C)C)CC1", "note": "[Compound 76, 1-(4-(4-(5-chloro-4-(5-methyl-1H-pyrazol-3-ylamino)pyrimidin-2-ylamino)-2-methoxy-5-methylphenyl)piperidin-1-yl)-2-(dimethylamino)ethanone]", "IC50": 0.009}
{"smiles": "Cc1cc(Nc2nc(Nc3cc(Cl)c(C4CCN(C(=O)CN(C)C)CC4)cc3Cl)ncc2Cl)n[nH]1", "note": "[Compound 77, 1-(4-(2,5-dichloro-4-(5-chloro-4-(5-methyl-1H-pyrazol-3-ylamino)pyrimidin-2-ylamino)phenyl)piperidin-1-yl)-2-(dimethylamino)ethanone]", "IC50": 0.007}
{"smiles": "Cc1cc(Nc2nc(Nc3cc(C)c(C4CCN(C(=O)CCN(C)C)CC4)cc3F)ncc2Cl)n[nH]1", "note": "[Compound 78, 1-(4-(4-(5-chloro-4-(5-methyl-1H-pyrazol-3-ylamino)pyrimidin-2-ylamino)-5-fluoro-2-methylphenyl)piperidin-1-yl)-3-(dimethylamino)propan-1-one]", "IC50": 0.138}
{"smiles": "Cc1cc(Nc2nc(Nc3cc(C)c(C4CCN(C(=O)CN)CC4)cc3F)ncc2Cl)n[nH]1", "note": "[Compound 79, 2-amino-1-(4-(4-(5-chloro-4-(5-methyl-1H-pyrazol-3-ylamino)pyrimidin-2-ylamino)-5-fluoro-2-methylphenyl)piperidin-1-yl)ethanone]", "IC50": 0.075}
{"smiles": "CNCC(=O)N1CCC(c2cc(F)c(Nc3ncc(Cl)c(Nc4cc(C)[nH]n4)n3)cc2C)CC1", "note": "[Compound 80, 1-(4-(4-(5-chloro-4-(5-methyl-1H-pyrazol-3-ylamino)pyrimidin-2-ylamino)-5-fluoro-2-methylphenyl)piperidin-1-yl)-2-(methylamino)ethanone]", "IC50": 0.103}
{"smiles": "CCN(CC)CC(=O)N1CCC(c2cc(F)c(Nc3ncc(Cl)c(Nc4cc(C)[nH]n4)n3)cc2C)CC1", "note": "[Compound 81, 1-(4-(4-(5-chloro-4-(5-methyl-1H-pyrazol-3-ylamino)pyrimidin-2-ylamino)-5-fluoro-2-methylphenyl)piperidin-1-yl)-2-(diethylamino)ethanone]", "IC50": 0.03}
{"smiles": "Cc1cc(Nc2nc(Nc3cc(C)c(C4CCCCN4C(=O)CN(C)C)cc3C)ncc2Cl)n[nH]1", "note": "(stereo not shown) [Compound 83, 1-(2-(4-(5-chloro-4-(5-methyl-1H-pyrazol-3-ylamino)pyrimidin-2-ylamino)-2,5-dimethylphenyl)piperidin-1-yl)-2-(dimethylamino)ethanone]", "IC50": 0.013}
{"smiles": "CNC(C)C(=O)N1CCC(c2cc(F)c(Nc3ncc(Cl)c(Nc4cc(C)[nH]n4)n3)cc2C)CC1", "note": "(stereo not shown) [Compound 85, 1-(4-(4-(5-chloro-4-(5-methyl-1H-pyrazol-3-ylamino)pyrimidin-2-ylamino)-5-fluoro-2-methylphenyl)piperidin-1-yl)-2-(methylamino)propan-1-one]", "IC50": 0.042}
{"smiles": "Cc1cc(Nc2nc(Nc3cc(C)c(C4CCN(C(=O)C(C)N)CC4)cc3F)ncc2Cl)n[nH]1", "note": "(stereo not shown) [Compound 86, 2-amino-1-(4-(4-(5-chloro-4-(5-methyl-1H-pyrazol-3-ylamino)pyrimidin-2-ylamino)-5-fluoro-2-methylphenyl)piperidin-1-yl)propan-1-one]", "IC50": 0.141}
{"smiles": "CNC(C)(C)C(=O)N1CCC(c2cc(F)c(Nc3ncc(Cl)c(Nc4cc(C)[nH]n4)n3)cc2C)CC1", "note": "[Compound 87, 1-(4-(4-(5-chloro-4-(5-methyl-1H-pyrazol-3-ylamino)pyrimidin-2-ylamino)-5-fluoro-2-methylphenyl)piperidin-1-yl)-2-methyl-2-(methylamino)propan-1-one]", "IC50": 0.017}
{"smiles": "CNC(C)(C)C(=O)N1CCC(c2cc(C)c(Nc3ncc(Cl)c(Nc4cc(C)[nH]n4)n3)cc2Cl)CC1", "note": "[Compound 88, 1-(4-(2-chloro-4-(5-chloro-4-(5-methyl-1H-pyrazol-3-ylamino)pyrimidin-2-ylamino)-5-methylphenyl)piperidin-1-yl)-2-methyl-2-(methylamino)propan-1-one]", "IC50": 0.007}
{"smiles": "Cc1cc(Nc2nc(Nc3cc(C)c(C4CCN(C(=O)C(C)(C)N)CC4)cc3C)ncc2Cl)n[nH]1", "note": "[Compound 89, 2-amino-1-(4-(4-(5-chloro-4-(5-methyl-1H-pyrazol-3-ylamino)pyrimidin-2-ylamino)-2,5-dimethylphenyl)piperidin-1-yl)-2-methylpropan-1-one]", "IC50": 0.023}
{"smiles": "CNC1(C(=O)N2CCC(c3cc(C)c(Nc4ncc(Cl)c(Nc5cc(C)[nH]n5)n4)cc3C)CC2)CC1", "note": "[Compound 90, (4-(4-(5-chloro-4-(5-methyl-1H-pyrazol-3-ylamino)pyrimidin-2-ylamino)-2,5-dimethylphenyl)piperidin-1-yl)(1-(methylamino)cyclopropyl)methanone]", "IC50": 0.005}
{"smiles": "Cc1cc(Nc2nc(Nc3cc(C)c(C4CCN(C(=O)C5(N)CCC5)CC4)cc3C)ncc2Cl)n[nH]1", "note": "[Compound 91, (1-aminocyclobutyl)(4-(4-(5-chloro-4-(5-methyl-1H-pyrazol-3-ylamino)pyrimidin-2-ylamino)-2,5-dimethylphenyl)piperidin-1-yl)methanone]", "IC50": 0.052}
{"smiles": "Cc1cc(Nc2nc(Nc3cc(C)c(C4CCN(C(=O)C5(N(C)C)CCC5)CC4)cc3C)ncc2Cl)n[nH]1", "note": "[Compound 92, (4-(4-(5-chloro-4-(5-methyl-1H-pyrazol-3-ylamino)pyrimidin-2-ylamino)-2,5-dimethylphenyl)piperidin-1-yl)(1-(dimethylamino)cyclobutyl)methanone]", "IC50": 0.015}
{"smiles": "Cc1cc(Nc2nc(Nc3cc(C)c(C4CCN(C(=O)C5(N)CC5)CC4)cc3F)ncc2Cl)n[nH]1", "note": "[Compound 93, (1-aminocyclopropyl)(4-(4-(5-chloro-4-(5-methyl-1H-pyrazol-3-ylamino)pyrimidin-2-ylamino)-5-fluoro-2-methylphenyl)piperidin-1-yl)methanone]", "IC50": 0.033}
{"smiles": "Cc1cc(Nc2nc(Nc3cc(C)c(C4CCN(C(=O)C5(N(C)C)CC5)CC4)cc3F)ncc2Cl)n[nH]1", "note": "[Compound 94, (4-(4-(5-chloro-4-(5-methyl-1H-pyrazol-3-ylamino)pyrimidin-2-ylamino)-5-fluoro-2-methylphenyl)piperidin-1-yl)(1-(dimethylamino)cyclopropyl)methanone]", "IC50": 0.013}
{"smiles": "Cc1cc(Nc2nc(Nc3cc(Cl)c(C4CCN(C(=O)CN5CCOCC5)CC4)cc3C)ncc2Cl)n[nH]1", "note": "[Compound 95, 1-(4-(2-chloro-4-(5-chloro-4-(5-methyl-1H-pyrazol-3-ylamino)pyrimidin-2-ylamino)-5-methylphenyl)piperidin-1-yl)-2-morpholinoethanone]", "IC50": 0.006}
{"smiles": "Cc1cc(Nc2nc(Nc3cc(Cl)c(C4CCN(C(=O)CN5CCC5)CC4)cc3C)ncc2Cl)n[nH]1", "note": "[Compound 96, 2-(azetidin-1-yl)-1-(4-(2-chloro-4-(5-chloro-4-(5-methyl-1H-pyrazol-3-ylamino)pyrimidin-2-ylamino)-5-methylphenyl)piperidin-1-yl)ethanone]", "IC50": 0.024}
{"smiles": "Cc1cc(Nc2nc(Nc3cc(C)c(C4CCN(C(=O)CN5CCOCC5)CC4)cc3F)ncc2Cl)n[nH]1", "note": "[Compound 97, 1-(4-(4-(5-chloro-4-(5-methyl-1H-pyrazol-3-ylamino)pyrimidin-2-ylamino)-5-fluoro-2-methylphenyl)piperidin-1-yl)-2-morpholinoethanone]", "IC50": 0.02}
{"smiles": "Cc1cc(Nc2nc(Nc3cc(C)c(C4CCN(C(=O)CN5CCC5)CC4)cc3F)ncc2Cl)n[nH]1", "note": "[Compound 98, 2-(azetidin-1-yl)-1-(4-(4-(5-chloro-4-(5-methyl-1H-pyrazol-3-ylamino)pyrimidin-2-ylamino)-5-fluoro-2-methylphenyl)piperidin-1-yl)ethanone]", "IC50": 0.064}
{"smiles": "Cc1cc(Nc2nc(Nc3cc(C)c(C4CCN(C(=O)CN5CCCC5)CC4)cc3F)ncc2Cl)n[nH]1", "note": "[Compound 99, 1-(4-(4-(5-chloro-4-(5-methyl-1H-pyrazol-3-ylamino)pyrimidin-2-ylamino)-5-fluoro-2-methylphenyl)piperidin-1-yl)-2-(pyrrolidin-1-yl)ethanone]", "IC50": 0.038}
{"smiles": "Cc1cc(Nc2nc(Nc3cc(C)c(C4CCN(C(=O)Cn5cccc5)CC4)cc3F)ncc2Cl)n[nH]1", "note": "[Compound 100, 1-(4-(4-(5-chloro-4-(5-methyl-1H-pyrazol-3-ylamino)pyrimidin-2-ylamino)-5-fluoro-2-methylphenyl)piperidin-1-yl)-2-(1H-pyrrol-1-yl)ethanone]", "IC50": 0.025}
{"smiles": "Cc1cc(Nc2nc(Nc3cc(C)c(C4CCN(C(=O)CN5CCCCC5)CC4)cc3C)ncc2Cl)n[nH]1", "note": "[Compound 101, 1-(4-(4-(5-chloro-4-(5-methyl-1H-pyrazol-3-ylamino)pyrimidin-2-ylamino)-2,5-dimethylphenyl)piperidin-1-yl)-2-(piperidin-1-yl)ethanone]", "IC50": 0.007}
{"smiles": "Cc1cc(Nc2nc(Nc3cc(C)c(C4CCN(C(=O)CN5CCOCC5)CC4)cc3C)ncc2Cl)n[nH]1", "note": "[Compound 102, 1-(4-(4-(5-chloro-4-(5-methyl-1H-pyrazol-3-ylamino)pyrimidin-2-ylamino)-2,5-dimethylphenyl)piperidin-1-yl)-2-morpholinoethanone]", "IC50": 0.009}
{"smiles": "Cc1cc(Nc2nc(Nc3cc(C)c(C4CCN(C(=O)CN5C(C)CCCC5C)CC4)cc3C)ncc2Cl)n[nH]1", "note": "(stereo not shown) [Compound 103, 1-(4-(4-(5-chloro-4-(5-methyl-1H-pyrazol-3-ylamino)pyrimidin-2-ylamino)-2,5-dimethylphenyl)piperidin-1-yl)-2-(2,6-dimethylpiperidin-1-yl)ethanone]", "IC50": 0.009}
